Data on six molecules can be found in ChEMBL document CHEMBL3232855, “The discovery of N-((2H-tetrazol-5-yl)methyl)-4-((R)-1-((5r,8R)-8-(tert-butyl)-3-(3,5-dichlorophenyl)-2-oxo-1,4-diazaspiro[4.5]dec-3-en-1-yl)-4,4-dimethylpentyl)benzamide (SCH 900822): a potent and selective glucagon receptor antagonist” (J Med Chem, 2014).

For assay [1], the target named is T1, Glucagon-like peptide 1 receptor (Homo sapiens, UniProt P43220). The following applies: CHO, at 10 µM.
Description: Antagonist activity at human GLP-1R expressed in CHO cells assessed as inhibition of GLP-1-stimulated cAMP production at 10 uM preincubated for 30 mins followed by GLP-1 induction measured after 45 mins by LANCE assay relative to control
Assay [2] has as its target T2, Glucagon receptor (Homo sapiens, UniProt P47871). Nature of the assay: Antagonist activity at human GCGR expressed in CHO cells assessed as inhibition of glucagon-stimulated cAMP production preincubated for 30 mins followed by glucagon induction measured after 45 mins by LANCE assay. The class given is functional, cell-based. For orientation: Cyclic AMP is a second messenger, typically raised through Gs and lowered through Gi signalling.

The target in assay [3] is Glucagon receptor (Mus musculus, UniProt Q61606). The class given is cell membranes, Liver, Membrane.
Description: Displacement of [125I]-glucagon from GCGR in mouse liver membranes after 60 mins by scintillation counting analysis
Assay [4] has as its target T2, Glucagon receptor. Nature of the assay: biochemical. The class given is cell-based, CHO.
Description: Displacement of [125I]-glucagon from recombinant human GCGR expressed in CHO cells after 60 mins by scintillation counting analysis
Assay [5] has as its target T1, Glucagon-like peptide 1 receptor. The assay can be described thus: Antagonist activity at human GLP-1R expressed in CHO cells assessed as inhibition of GLP-1-stimulated cAMP production preincubated for 30 mins followed by GLP-1 induction measured after 45 mins by LANCE assay. Type of assay: functional, cell-based.
Assay [6] deals with Homo sapiens. Nature of the assay: Antidiabetic activity in human assessed as inhibition of exogenous glucagon-stimulated glucose excursion at 200 mg, po qd relative to control. Type of assay: functional.
The test system of assay [7] is Homo sapiens. The assay can be described thus: Antidiabetic activity in human assessed as inhibition of exogenous glucagon-stimulated glucose excursion at 1000 mg, po qd relative to control. Type of assay: functional.

One may read the inhibition as the change of the read-out against control, counted positive when it falls. As a reminder, the pIC50 is the IC50 on a negative log10 scale, so that one unit is a factor of ten.

pIC50: −log10 of the molar value. Some results are limits rather than exact numbers.

T2 sequence (P47871 whole entry): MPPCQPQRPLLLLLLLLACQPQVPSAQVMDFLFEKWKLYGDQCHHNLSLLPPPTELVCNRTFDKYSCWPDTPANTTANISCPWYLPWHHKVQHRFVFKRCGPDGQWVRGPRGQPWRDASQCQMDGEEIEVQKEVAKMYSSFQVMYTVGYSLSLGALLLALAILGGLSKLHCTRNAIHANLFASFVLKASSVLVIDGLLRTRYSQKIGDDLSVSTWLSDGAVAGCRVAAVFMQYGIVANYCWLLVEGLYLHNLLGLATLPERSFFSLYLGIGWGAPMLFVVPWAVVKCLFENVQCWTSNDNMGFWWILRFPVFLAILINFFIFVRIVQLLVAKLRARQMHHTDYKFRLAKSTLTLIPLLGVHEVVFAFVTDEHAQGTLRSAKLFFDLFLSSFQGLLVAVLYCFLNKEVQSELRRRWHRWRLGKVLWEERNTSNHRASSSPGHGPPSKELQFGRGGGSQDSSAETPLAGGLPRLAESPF
T1 sequence (P43220 whole entry): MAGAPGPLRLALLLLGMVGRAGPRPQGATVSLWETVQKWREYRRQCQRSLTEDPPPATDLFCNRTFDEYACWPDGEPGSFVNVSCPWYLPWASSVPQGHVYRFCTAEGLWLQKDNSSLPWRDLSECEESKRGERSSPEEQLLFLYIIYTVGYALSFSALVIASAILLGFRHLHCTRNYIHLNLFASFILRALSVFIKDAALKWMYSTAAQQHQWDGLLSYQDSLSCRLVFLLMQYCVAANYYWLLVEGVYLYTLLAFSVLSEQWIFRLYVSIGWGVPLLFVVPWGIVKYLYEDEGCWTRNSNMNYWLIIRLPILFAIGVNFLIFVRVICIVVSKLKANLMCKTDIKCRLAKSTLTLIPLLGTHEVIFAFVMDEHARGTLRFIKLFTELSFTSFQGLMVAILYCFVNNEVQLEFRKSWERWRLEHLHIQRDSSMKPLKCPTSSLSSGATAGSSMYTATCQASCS
Chain of Glucagon receptor (Mus musculus, UniProt Q61606) (Q61606 whole entry): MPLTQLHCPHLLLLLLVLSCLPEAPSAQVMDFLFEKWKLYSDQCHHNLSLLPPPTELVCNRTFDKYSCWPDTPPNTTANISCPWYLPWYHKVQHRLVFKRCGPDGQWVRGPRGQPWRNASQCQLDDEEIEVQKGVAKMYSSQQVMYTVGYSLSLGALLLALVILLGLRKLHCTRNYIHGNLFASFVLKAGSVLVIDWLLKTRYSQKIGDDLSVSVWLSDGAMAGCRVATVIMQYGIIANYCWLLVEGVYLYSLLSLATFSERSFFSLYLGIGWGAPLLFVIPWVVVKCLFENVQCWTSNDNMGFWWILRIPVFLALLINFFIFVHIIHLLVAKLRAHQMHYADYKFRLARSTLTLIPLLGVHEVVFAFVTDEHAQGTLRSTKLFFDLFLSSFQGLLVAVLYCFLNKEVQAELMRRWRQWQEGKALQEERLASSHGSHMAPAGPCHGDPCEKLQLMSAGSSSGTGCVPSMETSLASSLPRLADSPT

Regarding `C[C@H](c1ccc(C(=O)NCc2nnn[nH]2)cc1)N1C(=O)C(c2cc(Cl)cc(Cl)c2)=N[C@]12CC[C@@H](C(C)(C)C)CC2`, the inhibition in assay [1] turned out to be 9%. The pIC50 is 6.74 in assay [2], 6.40 in assay [3], 6.89 in assay [4] and below 5.00 in assay [5].

Consider `CCCc1c(C(C)C)cc(C(C)C)c(C(C)O)c1-c1ccc(F)cc1` (single isomer, unassigned; (+)), for which the “inhibition (INH)” value in assay [6] was found to be 59%; in assay [7], 100%.

For `CC(C)(C)[C@H]1CC[C@]2(CC1)N=C(c1cccc(Cl)c1)C(=O)N2Cc1ccc(C(=O)NCCC(=O)O)cc1`, the inhibition in assay [1] is below 50%. Further, the negative logarithm of the IC50 (pIC50) in assay [2] was 6.11; in assay [3], below 5.00; in assay [4], 6.11.

`CC(C)(C)[C@H]1CC[C@]2(CC1)N=C(c1ccccc1F)C(=O)N2Cc1ccc(C(=O)NCCC(=O)O)cc1` had an inhibition in assay [1] below 50%. Besides, the results for the pIC50 in assay [2], in assay [3] and in assay [4] were 6.14, below 5.00 and below 5.00, respectively.

Take `CC(C)(C)[C@H]1CC[C@]2(CC1)N=C(c1cc(Cl)cc(Cl)c1)C(=O)N2Cc1ccc(C(=O)NCCC(=O)O)cc1`: the inhibition in assay [1] was below 50%. Also, the negative logarithm of the IC50 (pIC50) is 6.54 in assay [2], below 5.00 in assay [3] and 6.28 in assay [4].

`COc1ccc2cc(-c3cc(-c4cc(Cl)cc(Cl)c4)nn3[C@@H](C)c3ccc(C(=O)NCCC(=O)O)cc3)ccc2c1` [MK-0893]: the “inhibition (INH)” value in assay [6] was determined as 59%; in assay [7], 100%.
